In US7759510B2, “Platinum complexes and methods of use” (University of South Florida, priority 2003, dated 2010):
Like-named read-outs stand apart in the source and are kept apart here. One block for each compound: values may come before it.

How the values were obtained:
Stat3 = target: T1, Stat3 (Mus musculus, UniProt P42227); assay: EMSA of nuclear extracts, Stat3 DNA-binding activity to hSIE probe; format: biochemical; conditions: in vitro
T1 construct: Nuclear extracts were prepared from NIH3T3/hEGFR cell that overexpress human epidermal growth factor (EGF) receptor and stimulated with EGF; endogenous in cells; host or cells: NIH3T3/hEGFR fibroblasts, EGF-stimulated (6 ng/ml, 15 min), nuclear extract
Procedure: Nuclear Extract Preparation and Analysis by EMSA of HK-Designated Platinum Complexes.
Nuclear extracts were prepared from NIH3T3/hEGFR cell that overexpress human epidermal growth factor (EGF) receptor and stimulated with EGF (6 ng/ml) for 15 min. Nuclear extracts were pre-incubated with compounds for 30 min at room temperature prior to incubation with radiolabeled probe. The ^32P-labeled oligonucleotide probe used is hSIE (high affinity sis-inducible element, m67 variant, 5′-[…]-3′) (SEQ ID NO:1) that binds both Stat1 and Stat3.
Other platinum (IV) complexes were evaluated for inhibitory activity against STAT DNA-binding in vitro.

A549 cells = assay: MTT assay, percent survival of A549 cells; format: cell-based; conditions: A549; for IC50: Table 2, read-out: Calculated IC 50 (uM concentration)
Procedure: 1. Prepare a suspension of A549 cells at 2×10^5 cells per mL in supplemented DMEM/F12 growth medium.
2. Plate 2×10^4 cells per well in a 96 well cell culture plate by adding 100 μL of stock suspension to each well.
3. For each platinum compound (already in solution), prepare a readily usable stock solution in DMEM/F12 medium.
4. For each compound generate triplicate trials of 0, 10, 20, 30, 40, 50, 60, and 70 μM concentration. This is achieved in situ by adding appropriate volumes of stock solution to each well along with the volume of untreated medium necessary to generate the desired concentration in a final volume of 200 μL.
5. Gently agitate plates to mix contents. Incubate at 37° C., 7% CO2 for 45 hours.
6. Add 20 μL of 5 mg/mL MTT solution (in PBS) to each well.
7. Gently agitate plates to mix contents and incubate an additional 3 hours to allow product development.
8. Remove plates from incubator and agitate to cause settling of formazan product.
9. Aspirate out liquid contents of each well using needle and syringe and discard.
10. Add 200 μL DMSO to each well to dissolve formazan product.
11. Agitate plates until all of the formazan product is in solution and no purple crystals remain on the bottom surface of the wells.
12. Read the absorbance of each well at […] using Varian software for Cary 50 UV-vis Spectrophotometer with fiber optic probe accessory.
(§1) MTT assays are used for the quantitative determination of cellular proliferation and activation and for the quantitation of in vitro tumor cell sensitivity to anti-cancer compounds. The assay is based on the cleavage of the yellow tetrazolium salt MTT into purple colored formazan by metabolically active cells. Solubilized formazan product can be photometrically quantitated using an ELISA plate reader. A decrease in the number of living cells results in a decrease in total metabolic activity which leads to a decrease in color formation. Platinum complexes of the present invention were tested in MTT assays using A549 cells to determine anti-cancer cell activity. […] FIGS. 1, 2, and 4 show percent survival versus platinum complex concentration in graphical form.
as §1, with “FIGS. 8, 9,” for “FIGS. 1, 2,”, “and 11” for “and 4”

[1] = linear trend from percent survival vs. concentration data of Table 1

T1 sequence (P42227 whole entry): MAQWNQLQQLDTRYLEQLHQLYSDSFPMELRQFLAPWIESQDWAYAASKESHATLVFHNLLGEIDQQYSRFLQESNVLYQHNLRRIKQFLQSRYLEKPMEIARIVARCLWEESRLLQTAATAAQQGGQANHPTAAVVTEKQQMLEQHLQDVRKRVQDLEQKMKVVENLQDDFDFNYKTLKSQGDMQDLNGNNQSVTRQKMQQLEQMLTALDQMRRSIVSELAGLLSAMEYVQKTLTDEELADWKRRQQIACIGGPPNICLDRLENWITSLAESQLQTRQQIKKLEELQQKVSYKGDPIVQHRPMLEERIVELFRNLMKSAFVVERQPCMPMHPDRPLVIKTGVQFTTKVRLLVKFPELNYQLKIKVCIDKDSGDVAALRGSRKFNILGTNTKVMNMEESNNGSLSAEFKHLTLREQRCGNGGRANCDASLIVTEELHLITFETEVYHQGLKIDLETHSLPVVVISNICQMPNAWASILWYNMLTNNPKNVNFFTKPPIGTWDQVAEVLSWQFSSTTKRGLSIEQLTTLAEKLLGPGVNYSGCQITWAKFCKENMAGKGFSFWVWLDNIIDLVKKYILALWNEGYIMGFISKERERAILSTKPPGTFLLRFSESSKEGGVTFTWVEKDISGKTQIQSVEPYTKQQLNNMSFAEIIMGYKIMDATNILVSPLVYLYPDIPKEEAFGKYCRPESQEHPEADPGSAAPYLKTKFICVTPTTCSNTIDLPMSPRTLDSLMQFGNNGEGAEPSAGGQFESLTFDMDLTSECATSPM

SMILES: O=C1C(Br)=CC2=C(c3ccccc3C(=O)[O-])C3C=C(Br)C([O-])=C(Br)C3OC2=C1Br.[NH2][Pt]([NH2])([Cl])([Cl])[N+](=O)[O-] (stereo not drawn) [CPA-30]
Disruption of Stat3 activity / ability to bind its consensus binding sequence (Stat3): strongly disrupt Stat3 activity

SMILES: Nc1cccc2c(=O)[nH][n]([Pt]([NH2])([NH2])([Cl])([Cl])[N+](=O)[O-])c(=O)c12 [CPA-51]
Average Absorbance (A549 cells; Table 1, 10 μM): 2.4925
Percent Survival (A549 cells; Table 1, 10 μM): 105.5652%
Average Absorbance (A549 cells; Table 1, 20 μM): 2.5760
Percent Survival (A549 cells; Table 1, 20 μM): 109.1017%
Average Absorbance (A549 cells; Table 1, 30 μM): 2.3214
Percent Survival (A549 cells; Table 1, 30 μM): 98.3186%
Average Absorbance (A549 cells; Table 1, 40 μM): 2.0616
Percent Survival (A549 cells; Table 1, 40 μM): 87.3152%
Average Absorbance (A549 cells; Table 1, 50 μM): 1.3869
Percent Survival (A549 cells; Table 1, 50 μM): 58.7396%
Average Absorbance (A549 cells; Table 1, 60 μM): 0.8807
Percent Survival (A549 cells; Table 1, 60 μM): 37.3004%
Average Absorbance (A549 cells; Table 1, 70 μM): 1.0819
Percent Survival (A549 cells; Table 1, 70 μM): 45.8219%
IC50 (A549 cells; [1]): 61.2 µM
Average Absorbance (A549 cells; Table 3, 10 μM): 2.4744
Percent Survival (A549 cells; Table 3, 10 μM): 101.2895%
Average Absorbance (A549 cells; Table 3, 20 μM): 2.4868
Percent Survival (A549 cells; Table 3, 20 μM): 101.7970%
Average Absorbance (A549 cells; Table 3, 30 μM): 2.0998
Percent Survival (A549 cells; Table 3, 30 μM): 85.9552%
Average Absorbance (A549 cells; Table 3, 40 μM): 1.4758
Percent Survival (A549 cells; Table 3, 40 μM): 60.4118%
Average Absorbance (A549 cells; Table 3, 50 μM): 0.9352
Percent Survival (A549 cells; Table 3, 50 μM): 38.2824%
Average Absorbance (A549 cells; Table 3, 60 μM): 0.7084
Percent Survival (A549 cells; Table 3, 60 μM): 28.9983%
Average Absorbance (A549 cells; Table 3, 70 μM): 0.7058
Percent Survival (A549 cells; Table 3, 70 μM): 28.8919%
Disruption of Stat3 activity / ability to bind its consensus binding sequence (Stat3): strongly disrupt Stat3 activity

Disruption of Stat3 activity / ability to bind its consensus binding sequence (Stat3): strongly disrupt Stat3 activity
SMILES: [NH2][Pt]([NH2])([Cl])([Cl])([Br])[N+](=O)[O-] [CPA-10]

SMILES: N.N.[Cl][Pt][Cl] [Cis-Pt, Cis-diammineoplatinum(II) dichloride, reference compound]
Average Absorbance (A549 cells; Table 1, 10 μM): 2.3196
Percent Survival (A549 cells; Table 1, 10 μM): 98.2423%
Average Absorbance (A549 cells; Table 1, 20 μM): 2.3228
Percent Survival (A549 cells; Table 1, 20 μM): 98.3779%
Average Absorbance (A549 cells; Table 1, 30 μM): 2.3526
Percent Survival (A549 cells; Table 1, 30 μM): 99.6400%
Average Absorbance (A549 cells; Table 1, 40 μM): 2.1315
Percent Survival (A549 cells; Table 1, 40 μM): 90.2757%
Average Absorbance (A549 cells; Table 1, 50 μM): 1.8447
Percent Survival (A549 cells; Table 1, 50 μM): 78.1288%
Average Absorbance (A549 cells; Table 1, 60 μM): 1.1039
Percent Survival (A549 cells; Table 1, 60 μM): 46.7536%
Average Absorbance (A549 cells; Table 1, 70 μM): 0.7118
Percent Survival (A549 cells; Table 1, 70 μM): 30.1470%
IC50 (A549 cells; [1]): 63.3 µM
Average Absorbance (A549 cells; Table 3, 10 μM): 2.4665
Percent Survival (A549 cells; Table 3, 10 μM): 100.9661%
Average Absorbance (A549 cells; Table 3, 20 μM): 2.4556
Percent Survival (A549 cells; Table 3, 20 μM): 100.5199%
Average Absorbance (A549 cells; Table 3, 30 μM): 2.2686
Percent Survival (A549 cells; Table 3, 30 μM): 92.8650%
Average Absorbance (A549 cells; Table 3, 40 μM): 1.7575
Percent Survival (A549 cells; Table 3, 40 μM): 71.9432%
Average Absorbance (A549 cells; Table 3, 50 μM): 1.2828
Percent Survival (A549 cells; Table 3, 50 μM): 52.5114%
Average Absorbance (A549 cells; Table 3, 60 μM): 0.7971
Percent Survival (A549 cells; Table 3, 60 μM): 32.6293%
Average Absorbance (A549 cells; Table 3, 70 μM): 0.6718
Percent Survival (A549 cells; Table 3, 70 μM): 27.5001%
Average Absorbance (A549 cells; Table 4, 10 μM): 0.5299
Percent Survival (A549 cells; Table 4, 10 μM): 83.1%
Average Absorbance (A549 cells; Table 4, 20 μM): 0.6575
Percent Survival (A549 cells; Table 4, 20 μM): 103.1%
Average Absorbance (A549 cells; Table 4, 30 μM): 0.497
Percent Survival (A549 cells; Table 4, 30 μM): 77.95%
Average Absorbance (A549 cells; Table 4, 40 μM): 0.4763
Percent Survival (A549 cells; Table 4, 40 μM): 74.69%
Average Absorbance (A549 cells; Table 4, 50 μM): 0.3644
Percent Survival (A549 cells; Table 4, 50 μM): 57.14%
Average Absorbance (A549 cells; Table 4, 60 μM): 0.2814
Percent Survival (A549 cells; Table 4, 60 μM): 44.13%
Average Absorbance (A549 cells; Table 4, 70 μM): 0.1854
Percent Survival (A549 cells; Table 4, 70 μM): 29.07%
Average Absorbance (A549 cells; Table 6, 10 μM): 2.3196
Percent Survival (A549 cells; Table 6, 10 μM): 98.2423%
Average Absorbance (A549 cells; Table 6, 20 μM): 2.3228
Percent Survival (A549 cells; Table 6, 20 μM): 98.3779%
Average Absorbance (A549 cells; Table 6, 30 μM): 2.3526
Percent Survival (A549 cells; Table 6, 30 μM): 99.6400%
Average Absorbance (A549 cells; Table 6, 40 μM): 2.1315
Percent Survival (A549 cells; Table 6, 40 μM): 90.2757%
Average Absorbance (A549 cells; Table 6, 50 μM): 1.8447
Percent Survival (A549 cells; Table 6, 50 μM): 78.1288%
Average Absorbance (A549 cells; Table 6, 60 μM): 1.1039
Percent Survival (A549 cells; Table 6, 60 μM): 46.7536%
Average Absorbance (A549 cells; Table 6, 70 μM): 0.7118
Percent Survival (A549 cells; Table 6, 70 μM): 30.1470%
Average Absorbance (A549 cells; Table 8, 10 μM): 2.4665
Percent Survival (A549 cells; Table 8, 10 μM): 100.9661%
Average Absorbance (A549 cells; Table 8, 20 μM): 2.4556
Percent Survival (A549 cells; Table 8, 20 μM): 100.5199%
Average Absorbance (A549 cells; Table 8, 30 μM): 2.2686
Percent Survival (A549 cells; Table 8, 30 μM): 92.8650%
Average Absorbance (A549 cells; Table 8, 40 μM): 1.7575
Percent Survival (A549 cells; Table 8, 40 μM): 71.9432%
Average Absorbance (A549 cells; Table 8, 50 μM): 1.2828
Percent Survival (A549 cells; Table 8, 50 μM): 52.5114%
Average Absorbance (A549 cells; Table 8, 60 μM): 0.7971
Percent Survival (A549 cells; Table 8, 60 μM): 32.6293%
Average Absorbance (A549 cells; Table 8, 70 μM): 0.6718
Percent Survival (A549 cells; Table 8, 70 μM): 27.5001%
Average Absorbance (A549 cells; Table 9, 10 μM): 0.5299
Percent Survival (A549 cells; Table 9, 10 μM): 83.1%
Average Absorbance (A549 cells; Table 9, 20 μM): 0.6575
Percent Survival (A549 cells; Table 9, 20 μM): 103.1096%
Average Absorbance (A549 cells; Table 9, 30 μM): 0.497
Percent Survival (A549 cells; Table 9, 30 μM): 77.95%
Average Absorbance (A549 cells; Table 9, 40 μM): 0.4763
Percent Survival (A549 cells; Table 9, 40 μM): 74.69%
Average Absorbance (A549 cells; Table 9, 50 μM): 0.3644
Percent Survival (A549 cells; Table 9, 50 μM): 57.14%
Average Absorbance (A549 cells; Table 9, 60 μM): 0.2814
Percent Survival (A549 cells; Table 9, 60 μM): 44.13%
Average Absorbance (A549 cells; Table 9, 70 μM): 0.1854
Percent Survival (A549 cells; Table 9, 70 μM): 29.07%

SMILES: CC(C)(C(=O)O)C(O)(C(=O)O)C(C)(C)C(=O)[O][Pt]([NH2])([NH2])([Cl])([Cl])[N+](=O)[O-] (stereo not drawn) [CPA-31]
Average Absorbance (A549 cells; Table 1, 10 μM): 2.4274
Percent Survival (A549 cells; Table 1, 10 μM): 102.8080%
Average Absorbance (A549 cells; Table 1, 20 μM): 2.3495
Percent Survival (A549 cells; Table 1, 20 μM): 99.5087%
Average Absorbance (A549 cells; Table 1, 30 μM): 2.3778
Percent Survival (A549 cells; Table 1, 30 μM): 100.7073%
IC50 (A549 cells; extrapolated from incomplete data (10-40 uM; CPA-31 10-30 μM), outside the measured range): 506 µM
Average Absorbance (A549 cells; Table 3, 10 μM): 2.5294
Percent Survival (A549 cells; Table 3, 10 μM): 103.5409%
Average Absorbance (A549 cells; Table 3, 20 μM): 2.3875
Percent Survival (A549 cells; Table 3, 20 μM): 97.7322%
Average Absorbance (A549 cells; Table 3, 30 μM): 1.7978
Percent Survival (A549 cells; Table 3, 30 μM): 73.5929%
Average Absorbance (A549 cells; Table 3, 40 μM): 0.8196
Percent Survival (A549 cells; Table 3, 40 μM): 33.5503%
Average Absorbance (A549 cells; Table 3, 50 μM): 0.6049
Percent Survival (A549 cells; Table 3, 50 μM): 24.7616%
Average Absorbance (A549 cells; Table 3, 60 μM): 0.6067
Percent Survival (A549 cells; Table 3, 60 μM): 24.8352%
Average Absorbance (A549 cells; Table 3, 70 μM): 0.6228
Percent Survival (A549 cells; Table 3, 70 μM): 25.4943%
